Reference: patent US8395037B2, “Pharmaceutical compositions for treating/preventing motor organ diseases” (Mitsubishi Corporation, priority 2005, dated 2013)

Key:
MMP-1 [1] = assay: MMP-1 production in cultured chondrocytes treated with cartilage degenerating factor (ELISA); type: cell-based, human; settings: for Production of MMP-1: IL-1β or H2O2 treated chondrocytes, 50 or 100 μM, 24 h
Protocol: (§1) Chondrocytes isolated from human articular cartilage tissues were used for cultured cells. After obtaining informed consent, cartilage tissues were collected from surgically-removed tissues from eight osteoarthritis patients. The collected tissues were sliced and then treated in a liquid low-glucose Dulbecco's modified Eagle's medium (DMEM, manufactured by Gibco Co.) containing 1.5 mg/ml collagenase B at 37° C. overnight, to isolate chondrocytes for culture. The cells were normally cultured in a culture flask (culture area: 25 cm^2), and in a polystyrene culture dish (diameter: 6 cm) for use in the experiments. […]
(§2) Influence of hydroxylated C60 fullerene on cartilage matrix-degrading enzyme production which is enhanced by cartilage catabolism inducers was analyzed using the enzyme-linked immunoassay (ELISA) method.
(§3) Chondrocytes that had been isolated and cultured by the above method (1) were subjected to two passage cultures. […] After a 24 hour incubation, the culture supernatant was collected, and the concentrations of cartilage matrix-degrading enzymes, matrix metalloprotease (MMP)-1, 3, and 13, were measured.
(§4) The concentrations of MMP-1, MMP-3, and MMP-13 in the culture supernatant were determined using ELISA kits (kits for MMP-1 and MMP-3, manufactured by R&D Co.; and a kit for MMP-13, manufactured by Amersham), which is the standard technique currently known in the art. […] 100 μl of 1.5 N H3PO4 was added to each well to stop the color reaction, and the absorbance at 450 nm was measured using a microtiter plate reader. According to the instructions provided by the manufacturer, the measured concentrations were calibrated using a lyophilized control reagent.

MMP-3 = MMP-3 production in cultured chondrocytes treated with cartilage degenerating factor (ELISA); type: cell-based, human; settings: for Production of MMP-3: IL-1β or H2O2 treated chondrocytes, 50 or 100 μM, 24 h
Protocol: as §1, §2, §3, §4

MMP-13 = MMP-13 production in cultured chondrocytes treated with cartilage degenerating factor (ELISA); type: cell-based, human; settings: for Production of MMP-13: IL-1β or H2O2 treated chondrocytes, 50 or 100 μM, 24 h
Protocol: as §1, §2, §3, §4

proteoglycan = assay: Cartilage matrix (proteoglycan) production in cultured chondrocytes (ELISA); type: cell-based, human; settings: for Cartilage matrix (proteoglycan)-synthesizing ability: decreased by IL-1β or H2O2, 50 and 100 μM, 24 h
Protocol: Chondrocytes isolated from human articular cartilage tissues were used for cultured cells. After obtaining informed consent, cartilage tissues were collected from surgically-removed tissues from eight osteoarthritis patients. The collected tissues were sliced and then treated in a liquid low-glucose Dulbecco's modified Eagle's medium (DMEM, manufactured by Gibco Co.) containing 1.5 mg/ml collagenase B at 37° C. overnight, to isolate chondrocytes for culture. The cells were normally cultured in a culture flask (culture area: 25 cm^2), and in a polystyrene culture dish (diameter: 6 cm) for use in the experiments. The cell culture was performed using a DMEM medium added with inactivated fetal bovine serum (FBS, manufactured by TRACE Co.) at 10% volume of the medium, and also 2 mM L-glutamine, 25 mM HEPES, and penicillin and streptomycin at 100 units/ml, in either a CO2 incubator (normoxic condition) which was set at 5% CO2+95% air, or a low oxygen chamber (hypoxic condition) which was set at 1% O2+5% CO2+94% N2, at 37° C. under saturated humidity.
Influence of hydroxylated 60 fullerene on cartilage matrix (proteoglycan or type II collagen) production ability decreased by cartilage catabolism inducers was analyzed using ELISA.
Chondrocytes that had been isolated and cultured by the above method (1) were subjected to two secondary cultures. Then, these cells in a subconfluent state were disseminated into a 24 well-culture plate at 1×10^5 cells/well. After incubation for 12 hours, the wells were washed with PBS and the medium was replaced with a fresh 10% FBS-containing DMEM. […]
The production quantities (concentrations) of the cartilage matrix (proteoglycan and type II collagen) in the culture supernatant were determined using ELISA kits (a kit for proteoglycan, manufactured by BioSource; and a kit for type II collagen, manufactured by Chondrex, Inc.), which is the standard technique currently known in the art.

MMP-1 [2] = assay: MMP-1 concentration in synovial fluid of osteoarthritis model knee joints (ELISA); type: in vivo, rabbit; settings: various concentrations, sequential measurement, versus control knees
Protocol: Sequential biochemical examinations of blood and synovial fluid were also performed (pre-administration and fourth- and eighth-week post-administration of water-solubilized fullerene). The observed biochemical examination items were (A) hepatic function (GOT and GPT), renal function (urea nitrogen and creatinine), and electrolytes (Na, K, and Cl), (B) extracellular matrix-degrading enzyme production ability (MMP-1, 3, and 13), and (C) cartilage matrix-synthesizing ability (proteoglycan). The items of (A) were measured by commercially available testing equipments and items of (B) and (C) were measured by ELISA method.

[3] = test system: osteoarthritis model rabbits
Protocol: Osteoarthritis animal model was prepared according to a general method. NZW-strain male rabbits (2 to 2.5 kg, purchased from Kitayama Labes Co.) were habituated for about one week, and both knee joint sites were shaved and disinfected with an iodine antiseptic agent under anesthesia with a combined administration of ketamine hydrochloride and xylazine (intramuscular administration, or intravenous administration if the anesthetic effect was low). The epidermis inside the knee joints was incised to expose the anterior cruciate ligament and medial collateral ligament, which were then cut out. After confirming and incising the articular capsule, the medial meniscus was exposed and totally extracted. Tissues around the articular capsule, patellar tendon, and epidermis were sutured thereafter. At the time of suturing, the operated site was washed with a physiological salt solution containing an antibiotic (injectable Viccillin, Meiji Seika) (500 mg (titer) as ampicillin sodium/20.0 ml of physiological saline solution).
From the postoperative first week, 2.0 ml of a hydroxylated C60 fullerene solution (100 μM, adjusted with the solvent polyethylene glycol) was injected into the right knee joint cavity, and 2.0 ml of solvent alone was injected into the left knee joint cavity, using a 23-gauge injection needle intraarticularly twice a week. […] Thickness of the degenerated cartilage layer and the number of chondrocytes in the degenerated cartilage layer were measured. The thickness of the degenerated cartilage layer was expressed as a relative value assuming that the immediate postoperative thickness (zeroth week) was 100%.
Moreover, proteoglycan content decrease in articular cartilage involved with cartilage degeneration was evaluated by safranin O staining. The evaluation result was expressed as an area ratio (%) to immediate postoperative proteoglycan-stained area.

Substance: hydroxylated C60 fullerene
- Production of MMP-1 (MMP-1 [1]): inhibited in all cases
- Production of MMP-1 (MMP-1 [1]; listed as fullerene): decreased the amount of MMP-1 produced
- Inhibitory effect on production of MMP-1 (MMP-1 [1]; hypoxic condition): also observed
- Production of MMP-3 (MMP-3): inhibited in all cases
- Production of MMP-3 (MMP-3; listed as fullerene): decreased the amount of MMP-3 produced
- Inhibitory effect on production of MMP-3 (MMP-3; hypoxic condition): also observed
- Production of MMP-13 (MMP-13): inhibited in all cases
- Production of MMP-13 (MMP-13; listed as fullerene): decreased the amount of MMP-13 produced
- Inhibitory effect on production of MMP-13 (MMP-13; hypoxic condition): also observed
- Cartilage matrix (proteoglycan)-synthesizing ability (proteoglycan): restored cartilage matrix synthesis
- Cartilage matrix (proteoglycan)-synthesizing ability (proteoglycan; listed as hydroxylated 60 fullerene): able to restore the decreased synthesizing ability
- Proteoglycan synthesizing ability (proteoglycan; fullerene alone, versus control groups): increased as compared to that of the control groups
- MMP-1 concentration in synovial fluid (MMP-1 [2]): MMP-1 production inhibitory effect was observed
- Chondrocytes and cartilage matrix, histology ([3]; 100 μM, 2.0 ml intraarticular twice a week, postoperative sixth and eighth week): histologically maintained
- Degeneration of the knee joint cartilage tissue ([3]; 100 μM, 2.0 ml intraarticular twice a week, versus solvent alone): mild
- Swelling/flare in articular local parts, influence on systemic condition ([3]; rabbit, in vivo): neither swelling/flare in articular local parts nor influence on systemic condition was observed
